The test system of experiment [1] is panel of five tumor cell lines (HD-MB03, RPMI-8402, SU-DHL-8, A549, MDA-MB-231). Kind of experiment: Antiproliferative activity, range over the panel of five tumor cell lines. The format is cell-based. The following applies: Homo sapiens; range over the active cell lines of the five-line panel; 72 h. Here is the method: The synthesized quinoline derivatives 4a–z and 4aa–ah were evaluated in vitro for their antiproliferative activity against a panel of five tumor cell lines (HD‐MB03, medulloblastoma; RPMI‐8402, T‐lymphoblastic leukemia; SU‐DHL‐8, B lymphocyte, large cell lymphoma; A549, non‐small cell lung cancer; MDA‐MB‐231, triple‐negative breast cancer) (Table 2). […] Replacing the 4‐Cl group with a trifluoromethyl group (4ac) reduced antiproliferative activity.
(§1) To test the newly synthesized compounds, various human cell lines were employed. HD‐MB03 cells were purchased from DSMZ (Braunschweig, Germany), while A549, MDA‐MB‐231, RPMI‐8420, SU‐DHL‐8, TOLEDO, VL51, SU‐DHL‐1, SU‐DHL‐18, and KM‐H2 were obtained from ATCC (Manassas, VA, USA). Cells were cultured in DMEM (for MDA‐MB‐231 and A549) or RPMI‐1640 (for RPMI‐8420, SU‐DHL‐8, TOLEDO, VL51, SU‐DHL‐1, SU‐DHL‐18, KM‐H2, and HD‐MB03) media (Gibco, Milan, Italy). Both media were supplemented with 115 units/mL penicillin G (Gibco, Milan, Italy), 115 µg/mL streptomycin (Invitrogen, Milan, Italy), and 10% fetal bovine serum (Invitrogen, Milan, Italy). Peripheral blood mononuclear cells (PBMCs) were isolated from healthy donors as previously described. For cytotoxicity assays, PBMCs were resuspended at 5 × 10⁵ cells/mL in complete RPMI medium with or without 2.5 µg/mL phytohemagglutinin (PHA) (Irvine Scientific) to stimulate T‐cell activation and proliferation. All cell lines were maintained at 37°C in a humidified atmosphere containing 5% CO₂. All compounds were dissolved in DMSO at a 10 mM stock concentration. For dose–response assays, cells were seeded in 96‐well plates at densities optimized for each cell line: HD‐MB03 at 10,000 cells/well, A549 at 4000 cells/well, and MDA‐MB‐231 at 7000 cells/well. All other cell lines were seeded at 20,000 cells/well in a final volume of 100 µL per well. After 24 h, cells were treated with a 6‐point serial dilution of compounds starting from 10 µM, in triplicate for statistical analysis. Seventy‐2 h posttreatment, 10 µL of resazurin solution (100 µg/mL) was added to each well, and cells were incubated for an additional 3–6 h. Fluorescence was measured using a Spark 10 M microplate reader (Tecan Group Ltd., Männedorf, Switzerland) with excitation at 535 nm and emission at 600 nm. The IC₅₀ was defined as the concentration of compound required to inhibit cell proliferation by 50% compared to cells treated with the highest DMSO concentration.

The subject of a further experiment is HD-MB03. Kind of experiment: In vitro antiproliferative activity, resazurin cell viability. It counts as cell-based. The settings on record: Homo sapiens, medulloblastoma cells, 72 h of treatment, mean ± SEM, at least three experiments. As for the experimental part: as §1
(§2) To test the newly synthesized compounds, various human cell lines were employed. HD-MB03 cells were purchased from DSMZ (Braunschweig, Germany), while A549, MDA-MB-231, RPMI-8420, SU-DHL-8, TOLEDO, VL51, SU-DHL-1, SU-DHL-18, and KM-H2 were obtained from ATCC (Manassas, VA, USA). Cells were cultured in DMEM (for MDA-MB-231 and A549) or RPMI-1640 (for RPMI-8420, SU-DHL-8, TOLEDO, VL51, SU-DHL-1, SU-DHL-18, KM-H2, and HD-MB03) media (Gibco, Milan, Italy). Both media were supplemented with 115 units/mL penicillin G (Gibco, Milan, Italy), 115 µg/mL streptomycin (Invitrogen, Milan, Italy), and 10% fetal bovine serum (Invitrogen, Milan, Italy). Peripheral blood mononuclear cells (PBMCs) were isolated from healthy donors as previously described. ^[1] For cytotoxicity assays, PBMCs were resuspended at 5 × 10⁵ cells/mL in complete RPMI medium with or without 2.5 µg/mL phytohemagglutinin (PHA) (Irvine Scientific) to stimulate T cell activation and proliferation. All cell lines were maintained at 37 °C in a humidified atmosphere containing 5% CO₂. All compounds were dissolved in DMSO at a 10 mM stock concentration. For dose–response assays, cells were seeded in 96-well plates at densities optimized for each cell line: HD-MB03 at 10,000 cells/well, A549 at 4,000 cells/well, and MDA-MB-231 at 7,000 cells/well. All other cell lines were seeded at 20,000 cells/well in a final volume of 100 µL per well. After 24 hours, cells were treated with a 6-point serial dilution of compounds starting from 10 µM, in triplicate for statistical analysis. Seventy-two hours post-treatment, 10 µL of resazurin solution (100 µg/mL) was added to each well, and cells were incubated for an additional 3–6 hours. Fluorescence was measured using a Spark 10M microplate reader (Tecan Group Ltd., Männedorf, Switzerland) with excitation at 535 nm and emission at 600 nm. […]

The next experiment has as its system RPMI-8402. The description is as above. It counts as cell-based. The settings on record: Homo sapiens, T-lymphoblastic leukemia cells, 72 h of treatment, mean ± SEM. As for the experimental part: as §1, §2
A further experiment relates to SU-DHL-8. The experiment is described as above. It counts as cell-based. The settings on record: Homo sapiens, B lymphocyte, large cell lymphoma, 72 h of treatment, mean ± SEM. As for the experimental part: as §1, §2
In another experiment the test system is A549. Described as above. The following applies: Homo sapiens, non-small cell lung cancer, 72 h of treatment, mean ± SEM. It counts as cell-based. Here is the method: as §1, §2
Another experiment has as its system MDA-MB-231. Described as above. The format is cell-based. The settings on record: Homo sapiens, triple-negative breast cancer, 72 h of treatment, mean ± SEM. As for the experimental part: as §1, §2
A further experiment relates to Ly1 (DLBCL). The settings on record: Figure 1; cited from earlier work.
A further experiment concerns Ly10 (DLBCL). The settings on record: Figure 1; cited from earlier work.
The subject of another experiment is TMD8 (DLBCL). The settings on record: Figure 1; cited from earlier work.
Experiment [2] has as its system VL51 (splenic B-cell lymphoma). The following applies: Figure 1; cited from earlier work.

SMILES strings stand for the structures.

For `O=C(Nc1ccc(C(F)(F)F)cc1)c1cc(/C=C/c2ccc(Cl)cc2)nc2ccccc12` [4z, (E)-2-(4-chlorostyryl)-N-(4-(trifluoromethyl)phenyl)quinoline-4-carboxamide], the half-inhibitory concentration (IC50) is 3.2 to 8.97 µM in [1]; 6.73 ± 1.15 µM in the experiment with HD-MB03; above 10 µM in the experiment on RPMI-8402; 4.77 ± 0.32 µM with SU-DHL-8; above 10 µM in the experiment with A549; above 10 µM with MDA-MB-231.

In the case of `Cc1cccc(/C=C/c2cc(C(=O)Nc3ccc(C(F)(F)F)cc3)c3ccccc3n2)c1` [4y, (E)-2-(3-methylstyryl)-N-(4-(trifluoromethyl)phenyl)quinoline-4-carboxamide], the IC50 in experiment [1] is 3.2 to 8.97 µM; with HD-MB03, 3.84 ± 0.22 µM; with RPMI-8402, 3.2 ± 0.19 µM; in the experiment with SU-DHL-8, 3.25 ± 0.23 µM; with A549, 8.73 ± 0.74 µM; with MDA-MB-231, 7.84 ± 0.65 µM.

Turning to `O=C(Nc1ccc([N+](=O)[O-])c(C(F)(F)F)c1)c1cc(/C=C/c2ccc(Cl)cc2)nc2ccccc12` [4w, (E)-2-(4-chlorostyryl)-N-(4-nitro-3-(trifluoromethyl)phenyl)quinoline-4-carboxamide], the concentration for half-maximal inhibition (IC50) in experiment [1] was 3.2 to 8.97 µM; with HD-MB03 it was above 10 µM; with RPMI-8402, 3.56 ± 0.44 µM; in the experiment with SU-DHL-8, 8.25 ± 0.67 µM; with A549, above 10 µM; in the experiment on MDA-MB-231 it was above 10 µM.

Regarding `O=S(=O)(Nc1cccc2cccnc12)c1ccc(F)cc1` [CU-O47], the 50% inhibitory concentration (IC50) with Ly1 (DLBCL) and in the experiment on Ly10 (DLBCL) was 0.7 µM each time.

As to `C[C@H](Nc1ncnc2[nH]cnc12)c1cc2ccc(F)cc2nc1-c1ccccn1` [ACP-319], the IC50 was 0.15 µM in the experiment on TMD8 (DLBCL), 3 µM in experiment [2] and 0.8 µM with Ly10 (DLBCL).

For the compound `O=C(Nc1ccc([N+](=O)[O-])c(C(F)(F)F)c1)c1cc(/C=C/c2ccccc2)nc2ccccc12` [4j, (E)-N-(4-nitro-3-(trifluoromethyl)phenyl)-2-styrylquinoline-4-carboxamide], the IC50 in experiment [1] is 3.2 to 8.97 µM; with HD-MB03, 8.23 ± 0.47 µM; with RPMI-8402, above 10 µM; in the experiment on SU-DHL-8, 3.86 ± 0.44 µM; in the experiment on A549, above 10 µM; in the experiment with MDA-MB-231 it was above 10 µM.

`COc1cc(/C=C/c2cc(C(=O)Nc3ccc([N+](=O)[O-])c(C(F)(F)F)c3)c3ccccc3n2)cc(OC)c1OC` [4t, (E)-N-(4-nitro-3-(trifluoromethyl)phenyl)-2-(3,4,5-trimethoxystyryl)quinoline-4-carboxamide]: the IC50 with HD-MB03, in the experiment on RPMI-8402, in the experiment with SU-DHL-8, in the experiment on A549 and in the experiment with MDA-MB-231 was above 10 µM each time.

On to `Cc1cccc(/C=C/c2cc(C(=O)Nc3ccc([N+](=O)[O-])c(C(F)(F)F)c3)c3ccccc3n2)c1` [4u, (E)-2-(3-methylstyryl)-N-(4-nitro-3-(trifluoromethyl)phenyl)quinoline-4-carboxamide], for which the IC50 in the experiment on HD-MB03, in the experiment on RPMI-8402, with SU-DHL-8, in the experiment with A549 and with MDA-MB-231 was above 10 µM in each case.

Turning to `COc1cc(NC(=O)c2cc(/C=C/c3ccccc3)nc3ccccc23)cc(OC)c1OC` [4e, (E)-2-styryl-N-(3,4,5-trimethoxyphenyl)quinoline-4-carboxamide], the IC50 was 7.1 ± 1.15 µM in the experiment with HD-MB03; above 10 µM in the experiment with RPMI-8402; 6.61 ± 0.76 µM in the experiment on SU-DHL-8; above 10 µM in the experiment with A549; above 10 µM in the experiment on MDA-MB-231.

Turning to `COc1ccc(/C=C/c2cc(C(=O)Nc3ccc([N+](=O)[O-])c(C(F)(F)F)c3)c3ccccc3n2)cc1` [4v, (E)-2-(4-methoxystyryl)-N-(4-nitro-3-(trifluoromethyl)phenyl)quinoline-4-carboxamide], the IC50 with HD-MB03, in the experiment on RPMI-8402, in the experiment with SU-DHL-8, with A549 and in the experiment with MDA-MB-231 was above 10 µM throughout.

With `O=C(Nc1ccc(C(F)(F)F)cc1)c1cc(/C=C/c2ccccc2)nc2ccccc12` [4h, (E)-2-styryl-N-(4-(trifluoromethyl)phenyl)quinoline-4-carboxamide], the IC50 in [1] was 3.2 to 8.97 µM; with HD-MB03, above 10 µM; with RPMI-8402, 8.97 ± 0.75 µM; in the experiment on SU-DHL-8 it was 7.09 ± 0.25 µM; with A549, above 10 µM; in the experiment with MDA-MB-231, above 10 µM.

`Cc1cccc(C)c1NC(=O)c1cc(/C=C/c2ccccc2)nc2ccccc12` [4d, (E)-N-(2,6-dimethylphenyl)-2-styrylquinoline-4-carboxamide]: the IC50 is above 10 µM with HD-MB03; above 10 µM with RPMI-8402; 6.53 ± 1.49 µM with SU-DHL-8; above 10 µM in the experiment with A549; 5.6 ± 0.79 µM in the experiment with MDA-MB-231.

For the compound `O=C(Nc1ccc(C(F)(F)F)cc1)c1cc(/C=C/c2ccc(Br)cc2)nc2ccccc12` [4aa, (E)-2-(4-bromostyryl)-N-(4-(trifluoromethyl)phenyl)quinoline-4-carboxamide], the half-inhibitory concentration (IC50) with HD-MB03, in the experiment with RPMI-8402, with SU-DHL-8, in the experiment on A549 and in the experiment on MDA-MB-231 was above 10 µM throughout.

On to `O=C(Nc1ccc(C(F)(F)F)cc1)c1cc(/C=C/c2ccc(Cl)c(Cl)c2)nc2ccccc12` [4ab, (E)-2-(3,4-dichlorostyryl)-N-(4-(trifluoromethyl)phenyl)quinoline-4-carboxamide], for which the 50% inhibitory concentration (IC50) in experiment [1] is 3.2 to 8.97 µM; in the experiment on HD-MB03, 7.83 ± 0.98 µM; with RPMI-8402 it was above 10 µM; in the experiment on SU-DHL-8 it was 6.54 ± 0.44 µM; in the experiment on A549, above 10 µM; in the experiment on MDA-MB-231, above 10 µM.

A word on the IC50: it is the concentration needed to halve the response being measured.

Source of the values: paper PMC12645083, “Microwave‐Enhanced Synthesis of 2‐Styrylquinoline‐4‐Carboxamides With Promising Anti‐Lymphoma Activity” (Archiv Der Pharmazie, 2025).
